Test results reported in ChEMBL document CHEMBL2176923, “Discovery of (5S,6S,9R)-5-amino-6-(2,3-difluorophenyl)-6,7,8,9-tetrahydro-5H-cyclohepta[b]pyridin-9-yl 4-(2-oxo-2,3-dihydro-1H-imidazo[4,5-b]pyridin-1-yl)piperidine-1-carboxylate (BMS-927711): an oral calcitonin gene-related peptide (CGRP) antagonist in clinical trials for treating migraine” (J Med Chem, 2012).
Values after ≈ are worked out from the molar mass of the structure shown. Active and inactive are the calls of the source. The calls are words filed in the database; no cut-off is given here.

How the values were obtained:
[1] = target: T1, Calcitonin gene-related peptide type 1 receptor (Homo sapiens, UniProt O60894+Q16602); assay: Displacement of [125I]-CGRP from CGRP receptor in human SK-N-MC cells after 2 hrs by gamma scintillation counter analysis; type: cell-based
T1 sequence (Q16602 whole entry, one chain of several): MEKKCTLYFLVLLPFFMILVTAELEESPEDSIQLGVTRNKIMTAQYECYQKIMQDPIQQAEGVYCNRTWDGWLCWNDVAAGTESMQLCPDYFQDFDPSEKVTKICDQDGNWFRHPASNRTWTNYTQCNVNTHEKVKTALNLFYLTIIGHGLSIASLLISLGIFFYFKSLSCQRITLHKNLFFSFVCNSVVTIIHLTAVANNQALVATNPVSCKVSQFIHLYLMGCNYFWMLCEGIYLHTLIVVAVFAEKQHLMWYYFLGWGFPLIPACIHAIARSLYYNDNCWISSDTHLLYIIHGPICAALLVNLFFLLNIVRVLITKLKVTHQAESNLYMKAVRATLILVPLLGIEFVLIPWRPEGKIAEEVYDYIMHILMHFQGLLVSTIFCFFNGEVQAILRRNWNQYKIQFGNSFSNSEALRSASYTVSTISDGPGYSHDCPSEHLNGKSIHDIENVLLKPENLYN

[2] = species: Homo sapiens; assay: Toxicity in human up to 600 mg; type: organism-based; conditions: in vivo
[3] = tested on: HEK293; assay: Inhibition of L type sodium channel expressed in HEK293 cells at 10 to 30 uM; type: cell-based; conditions: Homo sapiens
[4] = tested on: Callithrix jacchus; assay: Antagonist activity at CGRP receptor in Harlan marmoset assessed as inhibition of CGRP-induced facial blood flow at 7 mg/kg, sc administered 45 mins interval for 2 hrs post alphaCGRP challenge measured at 15 mins by laser droppler flowmetry relative to control; type: functional; conditions: route subcutaneous
[5] = Aqueous solubility of the compound in crystalline form; type: physicochemical
[6] = target: Cytochrome P450 2E1 (Homo sapiens, UniProt P05181); assay: Inhibition of human recombinant CYP2E1 after 45 mins by fluorescence assay; type: ADME
Cytochrome P450 2E1, sequence (P05181 whole entry): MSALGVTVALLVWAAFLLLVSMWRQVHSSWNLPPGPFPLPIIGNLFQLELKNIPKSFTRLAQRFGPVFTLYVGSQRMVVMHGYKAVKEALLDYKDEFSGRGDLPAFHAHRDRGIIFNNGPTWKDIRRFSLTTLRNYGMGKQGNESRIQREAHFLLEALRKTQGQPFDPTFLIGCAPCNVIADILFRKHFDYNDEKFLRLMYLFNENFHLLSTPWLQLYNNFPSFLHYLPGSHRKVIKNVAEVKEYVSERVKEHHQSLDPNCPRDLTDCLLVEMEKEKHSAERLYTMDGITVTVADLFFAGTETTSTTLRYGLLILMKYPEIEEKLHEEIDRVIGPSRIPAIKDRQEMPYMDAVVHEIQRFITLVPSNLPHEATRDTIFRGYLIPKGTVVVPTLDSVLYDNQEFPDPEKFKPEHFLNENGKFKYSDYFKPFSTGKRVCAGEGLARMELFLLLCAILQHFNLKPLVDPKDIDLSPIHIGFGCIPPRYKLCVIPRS

[7] = target: Voltage-gated L-type calcium channel (Homo sapiens, UniProt Q13936+Q13698+Q01668+O60840); assay: Inhibition of L type calcium channel expressed in HEK293 cells at 10 to 30 uM; type: cell-based
[8] = target: T2, Cytochrome P450 2A6 (Homo sapiens, UniProt P11509); assay: Inhibition of human recombinant CYP2A6 after 45 mins by fluorescence assay; type: ADME
T2 sequence (P11509 whole entry): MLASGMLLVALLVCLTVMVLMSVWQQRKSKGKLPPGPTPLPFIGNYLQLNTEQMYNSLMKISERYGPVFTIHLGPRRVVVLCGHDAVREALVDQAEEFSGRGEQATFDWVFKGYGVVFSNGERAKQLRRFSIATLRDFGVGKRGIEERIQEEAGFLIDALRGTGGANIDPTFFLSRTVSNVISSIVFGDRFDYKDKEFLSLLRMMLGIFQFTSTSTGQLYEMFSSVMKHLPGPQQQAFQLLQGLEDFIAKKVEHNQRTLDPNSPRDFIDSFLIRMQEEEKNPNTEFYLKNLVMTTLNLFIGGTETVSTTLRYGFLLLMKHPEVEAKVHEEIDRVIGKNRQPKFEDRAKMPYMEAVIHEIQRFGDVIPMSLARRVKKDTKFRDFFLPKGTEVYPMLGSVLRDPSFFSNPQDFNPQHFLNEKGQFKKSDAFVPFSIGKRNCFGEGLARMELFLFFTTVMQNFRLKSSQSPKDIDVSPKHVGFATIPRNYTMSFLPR

[9] = Oral bioavailability in overnight fasted cynomolgus monkey at 10 mg/kg administered as solution; type: ADME, organism-based, Macaca fascicularis; conditions: in vivo
[10] = target: T3, Cytochrome P450 2B6 (Homo sapiens, UniProt P20813); assay: Inhibition of human recombinant CYP2B6 after 45 mins by fluorescence assay; type: ADME
T3 sequence (P20813 whole entry): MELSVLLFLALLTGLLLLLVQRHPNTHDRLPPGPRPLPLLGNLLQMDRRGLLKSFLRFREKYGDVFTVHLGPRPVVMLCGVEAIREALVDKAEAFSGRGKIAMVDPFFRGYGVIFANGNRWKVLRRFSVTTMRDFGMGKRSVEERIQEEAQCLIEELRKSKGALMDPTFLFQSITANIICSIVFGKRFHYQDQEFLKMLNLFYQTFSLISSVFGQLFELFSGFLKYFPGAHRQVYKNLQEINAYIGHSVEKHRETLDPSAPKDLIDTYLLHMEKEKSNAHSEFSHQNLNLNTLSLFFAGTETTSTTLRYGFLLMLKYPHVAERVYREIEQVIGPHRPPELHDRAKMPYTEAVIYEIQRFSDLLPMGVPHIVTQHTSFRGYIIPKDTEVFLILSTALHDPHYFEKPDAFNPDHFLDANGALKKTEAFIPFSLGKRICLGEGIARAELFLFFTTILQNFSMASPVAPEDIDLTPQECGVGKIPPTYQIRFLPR

[11] = Oral bioavailability in overnight fasted cynomolgus monkey at 10 mg/kg administered as suspension of crystalline free base; type: ADME, organism-based, Macaca fascicularis; conditions: in vivo
[12] = Half life in human liver microsomes; type: ADME, Microsome
[13] = Plasma concentration in Harlan marmoset at 7 mg/kg, sc after 60 to 105 mins; type: ADME, organism-based, Callithrix jacchus; parameters: dose 7 mg/kg, route subcutaneous; conditions: in vivo
[14] = Permeability of the compound at 100 uM at pH 7.4 after 4 hrs by PAMPA; type: ADME; conditions: read-out: permeability
[15] = target: T4, Cytochrome P450 1A2 (Homo sapiens, UniProt P05177); assay: Inhibition of human recombinant CYP1A2 using 3-cyano-7-ethoxycoumarine as substrate after 45 mins by fluorescence assay; type: ADME
T4 sequence (P05177 whole entry): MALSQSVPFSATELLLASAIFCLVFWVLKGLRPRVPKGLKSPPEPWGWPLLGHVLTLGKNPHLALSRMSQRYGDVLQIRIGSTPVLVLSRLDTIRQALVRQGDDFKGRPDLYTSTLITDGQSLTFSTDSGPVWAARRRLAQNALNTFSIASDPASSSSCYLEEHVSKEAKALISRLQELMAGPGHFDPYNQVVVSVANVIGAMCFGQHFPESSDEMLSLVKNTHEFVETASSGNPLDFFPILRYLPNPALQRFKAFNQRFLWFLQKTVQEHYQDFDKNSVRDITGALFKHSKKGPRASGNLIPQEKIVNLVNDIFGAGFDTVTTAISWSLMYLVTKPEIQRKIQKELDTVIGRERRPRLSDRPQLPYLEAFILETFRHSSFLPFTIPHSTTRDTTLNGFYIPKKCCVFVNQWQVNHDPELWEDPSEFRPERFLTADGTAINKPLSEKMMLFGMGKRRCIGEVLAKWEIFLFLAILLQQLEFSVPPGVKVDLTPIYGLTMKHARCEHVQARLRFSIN

[16] = target: T1, Calcitonin gene-related peptide type 1 receptor; assay: Antagonist activity at CGRP receptor in human SK-N-MC cells assessed as inhibition of CGRP-stimulated cAMP production preincubated for 15 mins prior to CGRP challenge measured after 30 mins by HTRF assay; type: functional, cell-based
[17] = tested on: Salmonella typhimurium; assay: Genotoxicity in Salmonella typhimurium by Ames test; type: toxicity, organism-based; conditions: salmonella enterica subsp. enterica serovar typhimurium
[18] = target: Voltage-gated inwardly rectifying potassium channel KCNH2 (Homo sapiens, UniProt Q12809); assay: Inhibition of human ERG alpha subunit expressed in HEK293 cells at 10 to 30 uM; type: cell-based
Voltage-gated inwardly rectifying potassium channel KCNH2, sequence (Q12809 whole entry): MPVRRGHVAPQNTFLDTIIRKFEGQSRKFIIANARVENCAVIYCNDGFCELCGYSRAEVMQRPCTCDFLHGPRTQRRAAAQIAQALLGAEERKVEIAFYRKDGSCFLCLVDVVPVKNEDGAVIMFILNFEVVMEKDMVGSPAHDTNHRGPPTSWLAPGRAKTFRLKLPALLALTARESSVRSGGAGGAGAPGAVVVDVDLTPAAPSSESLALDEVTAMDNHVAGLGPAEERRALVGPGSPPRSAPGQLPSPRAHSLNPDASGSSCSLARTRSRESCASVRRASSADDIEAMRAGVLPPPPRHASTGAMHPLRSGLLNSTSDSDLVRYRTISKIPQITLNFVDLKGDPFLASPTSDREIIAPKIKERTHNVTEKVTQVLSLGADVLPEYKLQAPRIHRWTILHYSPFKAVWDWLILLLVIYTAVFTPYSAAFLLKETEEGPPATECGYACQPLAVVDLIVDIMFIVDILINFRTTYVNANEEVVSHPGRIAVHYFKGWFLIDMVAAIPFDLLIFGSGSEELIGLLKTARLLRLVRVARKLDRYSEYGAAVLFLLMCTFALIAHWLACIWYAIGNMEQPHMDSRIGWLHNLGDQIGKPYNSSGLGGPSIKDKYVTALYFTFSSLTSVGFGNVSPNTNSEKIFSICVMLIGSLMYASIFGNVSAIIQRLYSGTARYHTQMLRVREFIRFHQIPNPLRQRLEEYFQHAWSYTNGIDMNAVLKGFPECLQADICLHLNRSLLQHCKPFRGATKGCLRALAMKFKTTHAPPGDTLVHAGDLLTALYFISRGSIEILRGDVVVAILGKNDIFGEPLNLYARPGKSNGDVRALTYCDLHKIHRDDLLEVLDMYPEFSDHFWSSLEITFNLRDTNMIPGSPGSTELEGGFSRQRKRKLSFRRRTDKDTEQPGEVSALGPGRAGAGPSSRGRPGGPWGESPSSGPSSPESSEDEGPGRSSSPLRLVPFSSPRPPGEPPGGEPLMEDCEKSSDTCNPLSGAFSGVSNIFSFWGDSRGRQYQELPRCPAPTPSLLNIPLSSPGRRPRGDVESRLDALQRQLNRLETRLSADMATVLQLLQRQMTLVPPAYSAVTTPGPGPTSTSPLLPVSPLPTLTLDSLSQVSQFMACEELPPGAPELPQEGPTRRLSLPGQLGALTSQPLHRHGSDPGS

[19] = Fraction unbound in human plasma; type: ADME, cell-free
[20] = Oral bioavailability in fasted Sprague-Dawley rat at 10 mg/kg administered as solution; type: ADME, organism-based; conditions: in vivo
[21] = tested on: Callithrix jacchus; assay: Antagonist activity at CGRP receptor in Harlan marmoset assessed as inhibition of alphaCGRP-induced facial blood flow at 7 mg/kg, sc administered 45 mins interval for 2 hrs post alphaCGRP challenge measured after 60 to 105 mins by laser droppler flowmetry relative to control; type: functional; conditions: route subcutaneous
[22] = target: Cytochrome P450 2C19 (Homo sapiens, UniProt P33261); assay: Inhibition of human recombinant CYP2C19 using 3-cyano-7-ethoxycoumarine as substrate after 45 mins by fluorescence assay; type: ADME
Cytochrome P450 2C19, sequence (P33261 whole entry): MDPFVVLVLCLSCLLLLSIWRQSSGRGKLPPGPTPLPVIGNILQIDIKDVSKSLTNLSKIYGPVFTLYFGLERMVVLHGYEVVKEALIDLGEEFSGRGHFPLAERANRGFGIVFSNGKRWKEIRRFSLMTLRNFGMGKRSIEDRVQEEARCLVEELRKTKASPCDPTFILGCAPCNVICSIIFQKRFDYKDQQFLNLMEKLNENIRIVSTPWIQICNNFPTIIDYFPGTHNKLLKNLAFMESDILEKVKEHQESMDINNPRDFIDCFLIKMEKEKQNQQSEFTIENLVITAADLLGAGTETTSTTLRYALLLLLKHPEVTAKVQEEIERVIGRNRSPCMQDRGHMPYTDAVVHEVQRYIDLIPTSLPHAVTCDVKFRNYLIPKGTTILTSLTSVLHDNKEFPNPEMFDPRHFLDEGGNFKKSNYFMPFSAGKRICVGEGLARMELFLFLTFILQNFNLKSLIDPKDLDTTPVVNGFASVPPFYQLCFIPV

[23] = Plasma concentration in Harlan marmoset at 7 mg/kg, sc at 15 mins; type: ADME, organism-based, Callithrix jacchus; parameters: dose 7 mg/kg, route subcutaneous
[24] = target: Cytochrome P450 2D6 (Homo sapiens, UniProt P10635); assay: Inhibition of human recombinant CYP2D6 using 3-[2-(N,N-diethyl-Nmethylamino) ethyl]-7-methoxy-4-methylcoumarin as substrate after 45 mins by fluorescence assay; type: ADME
Cytochrome P450 2D6, sequence (P10635 whole entry): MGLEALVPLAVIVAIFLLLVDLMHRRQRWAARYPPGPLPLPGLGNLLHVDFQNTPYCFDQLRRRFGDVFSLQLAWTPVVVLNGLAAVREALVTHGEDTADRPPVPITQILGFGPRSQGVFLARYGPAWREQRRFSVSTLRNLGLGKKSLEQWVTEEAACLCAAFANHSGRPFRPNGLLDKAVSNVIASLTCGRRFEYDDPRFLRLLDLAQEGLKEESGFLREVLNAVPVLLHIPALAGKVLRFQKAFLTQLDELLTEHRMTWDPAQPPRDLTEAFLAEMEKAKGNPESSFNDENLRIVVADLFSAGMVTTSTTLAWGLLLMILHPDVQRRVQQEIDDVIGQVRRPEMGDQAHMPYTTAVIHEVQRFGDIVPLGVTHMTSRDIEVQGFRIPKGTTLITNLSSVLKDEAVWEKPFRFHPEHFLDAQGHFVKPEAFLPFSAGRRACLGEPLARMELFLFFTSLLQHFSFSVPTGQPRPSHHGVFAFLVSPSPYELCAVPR

[25] = Permeability of the compound at 100 uM at pH 5.5 after 4 hrs by PAMPA; type: ADME; conditions: read-out: permeability
[26] = target: Cytochrome P450 2C9 (Homo sapiens, UniProt P11712); assay: Inhibition of human recombinant CYP2C9 using 7-methoxy-4-trifluoromethylcoumarin as substrate after 45 mins by fluorescence assay; type: ADME
Cytochrome P450 2C9, sequence (P11712 whole entry): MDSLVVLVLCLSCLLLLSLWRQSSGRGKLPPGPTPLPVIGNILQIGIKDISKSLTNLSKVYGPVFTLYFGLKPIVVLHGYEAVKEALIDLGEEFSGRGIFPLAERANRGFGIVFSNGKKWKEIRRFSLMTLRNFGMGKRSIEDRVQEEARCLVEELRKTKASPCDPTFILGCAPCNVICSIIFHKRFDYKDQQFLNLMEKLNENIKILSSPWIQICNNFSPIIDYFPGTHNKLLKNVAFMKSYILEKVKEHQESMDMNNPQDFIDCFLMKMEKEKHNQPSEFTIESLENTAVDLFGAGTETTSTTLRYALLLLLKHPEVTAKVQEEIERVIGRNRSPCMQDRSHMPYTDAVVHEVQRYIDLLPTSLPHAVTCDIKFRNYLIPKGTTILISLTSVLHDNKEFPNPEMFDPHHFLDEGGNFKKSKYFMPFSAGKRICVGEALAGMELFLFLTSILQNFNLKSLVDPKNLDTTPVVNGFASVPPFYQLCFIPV

[27] = Aqueous solubility of the compound in amorphous form; type: physicochemical

Work on `O=C(O[C@@H]1CC[C@@H](c2cccc(F)c2F)[C@@H](O)c2cccnc21)N1CCC(n2c(=O)[nH]c3ncccc32)CC1` yielded a Ki [1] of 4.3 nM.

`[N-]=[N+]=N[C@@H]1c2cccnc2[C@H](OC(=O)N2CCC(n3c(=O)[nH]c4ncccc43)CC2)CC[C@H]1c1cccc(F)c1F` gave a Ki [1] of 0.066 nM.

`O=C(O[C@@H]1CC[C@H](c2cccc(F)c2F)[C@H](O)c2cccnc21)N1CCC(n2c(=O)[nH]c3ncccc32)CC1` (mixture of isomers) showed a Ki [1] of 0.67 nM.

In the case of `N[C@@H]1c2cccnc2[C@H](OC(=O)N2CCC(n3c(=O)[nH]c4ncccc43)CC2)CC[C@H]1c1cccc(F)c1F` [RIMEGEPANT], the Activity [2] is reported as “Non-toxic”, the inhibition [3] is reported as “inactive” and the inhibition in vivo at 7 mg/kg [4] is reported as greater than 65%. For the same compound, the solubility [5] was 50 µg/mL (≈ 93.5 µM), the IC50 [6] was no less than 20 µM and the “inhibition (INH)” value [7] was “Not Active”. For the same compound, the IC50 [8] was no less than 20 µM, the bioavailability [9] was 67% and the IC50 [10] was no less than 20 µM. The bioavailability [11] was 48%, the half-life [12] was 83 min and the concentration [13] was less than 800 nM. It also gave a Papp at 4 h, 100 µM [14] of 32 ×10⁻⁶ cm/s, an IC50 [15] of no less than 20 µM and an EC50 [16] of 0.14 nM. For the same compound, the Activity [17] was “Non-toxic”, the Ki [1] was 0.027 nM and the “inhibition (INH)” value [18] was less than 30%. For the same compound, the fraction unbound [19] was 0.069, the bioavailability [20] was 45% and the inhibition in vivo at 7 mg/kg [21] was 75%. The IC50 [22] was no less than 20 µM, the concentration at 0.25 h [23] was 400 nM and the IC50 [24] was no less than 20 µM. For the same compound, the Papp at 4 h, 100 µM [25] was 19 ×10⁻⁶ cm/s and the IC50 [26] was no less than 20 µM.

Compound `O=C(O[C@@H]1CC[C@@H](c2cccc(F)c2F)[C@H](O)c2cccnc21)N1CCC(n2c(=O)[nH]c3ncccc32)CC1` has a half-life [12] of 70 min, a Ki [1] of 0.081 nM and a fraction unbound [19] of 0.041. It also gave a solubility [27] of 66 µg/mL (≈ 123 µM).
